# Measured values published in paper PMC3601769 (Bioorganic & medicinal chemistry letters, 2013).
# Tested on: tubulin (colchicine site)
# Assay: Inhibition of colchicine binding to tubulin
row,SMILES,Inhibition of colchicine binding (% inhibition ± SD) at 5 μM inhibitor
1,CCOC(=O)c1cccc(Nc2nc(-c3ccc(OC)cc3)no2)c1 [DCP 10500035],inactive
2,Fc1ccccc1Nc1nc(-c2ccccc2)no1 [DCP 10500060],inactive
3,COc1ccc(OC)c(Nc2nc(-c3cccc(OC)c3OC)no2)c1 [DCP 10500070],inactive
